US12173018B2, “Penicillin-binding protein inhibitors” (priority 2018, dated 2024)
Read-outs that look alike come from different tables or passages of the source.

What was measured:
[1] = test system: E. coli AG100; test: Broth microdilution MIC, E. coli AG100 (wild-type parent); format: cell-based; conditions: Escherichia coli; wild-type parent E. coli AG100, broth microdilution; read-out: MIC E. coli AG100
Experimental: To determine the ability of test compounds to potentiate the inhibition of the growth of bacterial strains, classic cell based broth microdilution minimum inhibitory concentration (MIC) assays were employed.
(§1) Briefly, cryo-preserved bacterial cultures of challenge strains are streaked for isolation on appropriate agar medium, in this case Mueller Hinton II agar. Following incubation to allow growth of the colonies, plates are sealed with parafilm and stored refrigerated for up to two weeks. For preparation of assay inoculum and to ensure low variability, at least 5 colonies are picked from the agar plates with an inoculating loop and aseptically transferred to a culture tube containing 3 mL of Mueller-Hinton Broth (supplemented with divalent cations to required levels based on Manufacturers' certification). The broth culture is grown for 3-5 hours at 37° C. with shaking at 200 rpm. Meanwhile, 2-fold serial dilutions of test compounds are conducted in a 96 well plate with a final volume of 75 μL per well at 2-fold the final desired concentration. After the dilution plates are set up the growing cultures are then diluted in a cuvette containing MH II broth and the optical density is measured at 600 nm. The Inoculum is diluted such that 75 μL of this culture in Mueller-Hinton Broth results in a starting bacterial concentration of 5×10^5 CFU/mL when added to the dilution plates. The plates are incubated for 16-20 hours at 37° C. The MIC values are read visually as the lowest concentration well with no bacterial growth.

[2] = test system: E. coli 901C; test: microbe, parasite or virus in culture; format: cell-based; conditions: Escherichia coli; hyper-permeable E. coli 901C, broth microdilution; read-out: MIC E. coli 901C
Experimental: (§2) To determine the ability of test compounds to potentiate the inhibition of the growth of bacterial strains, classic cell based broth microdilution minimum inhibitory concentration (MIC) assays were employed. MIC assays are performed according to CLSI methods except where otherwise noted (CLSI, 2011 and CLSI, 2009). The reference type strain E. coli ATCC 25922, the wild-type parent strain E. coli AG100, the hyper-permeable E. coli 901C and E. coli D22 and the E. coli AG100A strain lacking the acrAB efflux pump encoding genes were used to determine the ability of the PBP inhibitors to penetrate the outer membrane of gram-negative bacteria and inhibit bacterial growth. […] The P. aeruginosa PAO1, P. aeruginosa ATCC 27853 and A. baumannii ATCC 19606, along with the hyper-permeable P. aeruginosa ATCC 35151 and an engineered efflux pump-compromised strain of P. aeruginosa (ΔmexAB-oprM) were used to determine the ability of PBP inhibitors to penetrate the outer membrane of P. aeruginosa and A. baumannii and assess antibacterial activity against these important gram-negative organisms.
as §1

[3] = test system: E. coli AG100A; test: microbe, parasite or virus in culture; format: cell-based; conditions: Escherichia coli, read-out: MIC E. coli AG100A
Experimental: as §2, §1

[4] = test system: K. pneumoniae UMM; test: microbe, parasite or virus in culture; format: cell-based; conditions: Klebsiella pneumoniae; K. pneumoniae UMM producing SHV-5 and KPC-2; read-out: MIC K. pneumoniae UMM
Experimental: as §2, §1

[5] = test system: E. coli ATCC 25922; test: Broth microdilution MIC, E. coli ATCC 25922; format: cell-based; conditions: Escherichia coli
Experimental: as §2, §1

[6] = test system: K. pneumoniae SI-117; test: microbe, parasite or virus in culture; format: cell-based; conditions: Klebsiella pneumoniae, SI117, read-out: MIC K. pneumoniae SI-117
Experimental: as §2, §1

[7] = test system: K. pneumoniae 848844; test: microbe, parasite or virus in culture; format: cell-based, Klebsiella pneumoniae; conditions: Klebsiella pneumoniae; K. pneumoniae 848844 producing SHV-11 and KPC-2; read-out: MIC K. pneumoniae 848844
Experimental: as §2, §1

[8] = target: E. coli PBP3 (Escherichia coli (strain K12), UniProt P0AD68); test: E. coli PBP3 Bocillin-FL fluorescence polarization competition binding assay
E. coli PBP3, sequence (P0AD68 whole entry): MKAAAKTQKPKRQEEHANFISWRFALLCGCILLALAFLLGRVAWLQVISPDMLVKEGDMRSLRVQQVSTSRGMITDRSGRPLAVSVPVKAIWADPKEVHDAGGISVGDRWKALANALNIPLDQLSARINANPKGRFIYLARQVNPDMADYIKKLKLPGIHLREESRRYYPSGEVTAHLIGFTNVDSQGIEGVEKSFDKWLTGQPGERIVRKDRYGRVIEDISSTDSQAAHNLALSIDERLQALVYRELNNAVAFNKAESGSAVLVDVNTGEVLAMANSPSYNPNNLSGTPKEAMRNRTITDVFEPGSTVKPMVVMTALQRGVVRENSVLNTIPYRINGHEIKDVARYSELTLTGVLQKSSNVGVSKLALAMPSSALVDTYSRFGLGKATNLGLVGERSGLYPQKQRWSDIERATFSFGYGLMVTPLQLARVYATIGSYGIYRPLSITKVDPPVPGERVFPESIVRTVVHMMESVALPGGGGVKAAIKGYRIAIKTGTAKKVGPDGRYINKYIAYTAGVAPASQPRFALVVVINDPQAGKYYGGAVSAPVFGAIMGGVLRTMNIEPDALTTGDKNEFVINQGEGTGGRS
From the text: To determine the ability of boronic acid-based test PBP inhibitors to bind Penicillin Binding Proteins (PBPs), Bocillin-FL (fluorescently-labeled penicillin V; ThermoFisher Scientific) was used in a fluorescence polarization (FP) competition binding assay to assess inhibitor binding to PBP2, PBP3 or PBP4 from Escherichia coli. PBPs were cloned and purified as described previously (King, D. T, et al., ACS Infectious Diseases 2015, 1, 175-184). To establish assay conditions for competition binding, an enzyme titration/saturation binding experiment was initially performed. Bocillin-FL was prepared at 0.2 μM in a buffer comprised of 50 mM Hepes (pH 8.0), 300 mM NaCl and 5% (v/v) glycerol. Saturation binding was performed by mixing 40 μl of PBP solutions ranging in concentrations from 0-12 μM with 40 μl of the 0.2 μM Bocillin-FL solution, in individual wells of a black 384-well microplate. FP was measured immediately upon mixing (Excitation, 490 nm; Emission, 520 nm; g-factor, 0.96), using a Cytation3 (BioTek) microplate reader and measured continuously for up to 120 minutes. […] Assays (80 μl final volume) were performed with PBPs at a final concentration of 1.5 μM, Bocillin-FL at 0.1 μM and beta-lactam concentrations that ranged from 0-1000 μM. […] Bocillin-FL was added and the FP immediately measured for 60 minutes (90 minutes for PBP2). The beta-lactam potency was reported as the concentration of beta-lactam required to reduce binding of Bocillin-FL by […] (EC50). […] Binding assays for boronic acid PBP inhibitors were performed in an identical fashion.

[9] = test system: E. coli D22; test: microbe, parasite or virus in culture; format: cell-based; conditions: Escherichia coli; hyper-permeable E. coli D22, broth microdilution; read-out: MIC E. coli D22
Experimental: as §2, §1

[10] = ATCC25922, read-out: MIC E. coli 25922
[11] = ATCC25922, E. coli ATCC 25922, broth microdilution, read-out: MIC E. coli 25922

`CCNC(=O)NC(C(=O)N[C@H]1Cc2cccc(C(=O)O)c2OB1O)c1csc(N)n1` (stereo partly drawn) [Example 6, (3R)-3-(2-(2-aminothiazol-4-yl)-2-(3-ethylureido)acetamido)-2-hydroxy-3,4-dihydro-2H-benzo[e][1,2]oxaborinine-8-carboxylic acid] gave an MIC [1] greater than 128 mg/L, an MIC [2] of 8 to 16 mg/L and an MIC [3] of 8 to 16 mg/L. The MIC [4] was greater than 128 mg/L and the MIC [5, 10] was greater than 128 mg/L.
`Nc1nc(C(NS(=O)(=O)c2cccnc2)C(=O)N[C@H]2Cc3cccc(C(=O)O)c3OB2O)cs1` (stereo partly drawn) [Example 7, (3R)-3-(2-(2-aminothiazol-4-yl)-2-(pyridine-3-sulfonamido)acetamido)-2-hydroxy-3,4-dihydro-2H-benzo[e][1,2]oxaborinine-8-carboxylic acid] gave an MIC [1] greater than 128 mg/L, an MIC [2] of 8 to 16 mg/L and an MIC [3] of 32 to 64 mg/L. The MIC [4] was greater than 128 mg/L and the MIC [5, 10] was greater than 128 mg/L.
With `CCN1CCN(C(=O)N[C@@H](C)C(=O)N[C@H]2Cc3cccc(C(=O)O)c3OB2O)C(=O)C1=O` [Example 8, (R)-3-((S)-2-(4-Ethyl-2,3-dioxopiperazine-1-carboxamido)propanamido)-2-hydroxy-3,4-dihydro-2H-benzo[e][1,2]oxaborinine-8-carboxylic acid] the MIC [1] was greater than 128 mg/L, the MIC [2] was greater than 128 mg/L and the MIC [3] was greater than 128 mg/L. The MIC [4] was greater than 128 mg/L, the MIC [6] was greater than 128 mg/L and the MIC [5, 10] was greater than 128 mg/L.
`CCCN1CCN(C(=O)NC(C(=O)N[C@H]2Cc3cccc(C(=O)O)c3OB2O)c2ccc(O)cn2)C(=O)C1=O` (stereo partly drawn) [Example 134, (3R)-3-(2-(2,3-dioxo-4-propylpiperazine-1-carboxamido)-2-(5-hydroxypyridin-2-yl)acetamido)-2-hydroxy-3,4-dihydro-2H-benzo[e][1,2]oxaborinine-8-carboxylic acid] showed an MIC [1] of 32 to 64 mg/L, an MIC [7] of 32 to 64 mg/L and an EC50 ([8]; fluorescence polarization competition binding with Bocillin-FL, read-out: E. coli K12 PBP3 Potency) of less than 30 µM. For the same compound, the MIC [2] was 2 to 4 mg/L, the MIC [3] was 8 to 16 mg/L and the MIC [4] was 32 to 64 mg/L. For the same compound, the MIC [9] was 8 to 16 mg/L, the MIC [6] was 32 to 64 mg/L and the MIC [5, 11] was 32 to 64 mg/L.
With `CCN1CCN(C(=O)NC(C(=O)N[C@H]2Cc3cccc(C(=O)O)c3OB2O)c2ccc(O)c(O)n2)C(=O)C1=O` (stereo partly drawn) [Example 140, (3R)-3-(2-(5,6-dihydroxypyridin-2-yl)-2-(4-ethyl-2,3-dioxopiperazine-1-carboxamido)acetamido)-2-hydroxy-3,4-dihydro-2H-benzo[e][1,2]oxaborinine-8-carboxylic acid] the MIC [1] was 32 to 64 mg/L, the MIC [7] was 32 to 64 mg/L and the EC50 [8] was 30 to 500 µM. The MIC [2] was 0.5 to 1 mg/L, the MIC [3] was 2 to 4 mg/L and the MIC [4] was 8 to 16 mg/L. For the same compound, the MIC [9] was 2 to 4 mg/L, the MIC [6] was 32 to 64 mg/L and the MIC [5, 11] was 8 to 16 mg/L.
